Results on 12 compounds are retold here after patent publication US11932638B2, “Ion channel inhibitor compounds for cancer treatment” (Centre National de la Recherche Scientifique, priority 2017, dated 2024).

Read-outs that look alike come from different tables or passages of the source.

One assay has as its target T1, SK2 channel (Rattus norvegicus, UniProt P70604).
T1 construct: expressed in transfected cells
In words: Automated patch clamp (Nanion NPC-16 Patchliner Quattro) on HEK-rSK2 cells, SK2 channel activity. The assay is classed as cell-based. The conditions noted are these: for inhibition at 0.001 µM: 1 nM; for inhibition at 0.01 µM: 10 nM. From the text: (§1) Cell Lines Used to Screen the Molecules on the Activity of SKCa Channels (Small Conductance Calcium-Activated Potassium Channel; SK1, SK2 and SK3) and IKCa Channels (Intermediate Conductance Calcium-Activated Potassium Channel, SK4)
(§2) Use was made of the HEK 293 T line, a foetal kidney line which was immortalised with the T antigen of the […] simian virus. This cell line is widely used on account of the ease with which these cells can be transfected with plasmids or other transfection vectors. Four stable lines were used for patch clamp experiments: HEK-hSK1, HEK-rSK2, HEK-rSK3 and HEK-IKCa/SK4 which respectively overexpress the SK1, SK2, SK3 and SK4 channels. The lines were obtained via stable transduction (Girault et al., Current Cancer Drug Targets, 2011, 11, 1111-25) and are those already routinely used to assay SK3 modulators (Potier et al. Br J Pharmacol. 2011 January; 162(2):464-79; Sevrain et al., Med. Chem. Commun., 2012, 3, 1471-1478; Sevrain et al., Organic & Biomolecular Chemistry, 2013 Jul. 21; 11(27):4479-87, Berthe W, Sevrain C M, Chantôme A, Bouchet A M, Gueguinou M, Fourbon Y, Potier-Cartereau M, Haelters J P, Couthon-Gourvès H, Vandier C, Jaffrès P A. ChemMedChem. 2016 Jul. 19; 11(14):1531-9). […] These lines therefore enabled us without difficulty to examine the effect of the molecules on the SK3 channel, and also the selectivity thereof by means of the patch clamp technique. The inhibitory activity of the non-toxic molecules was assayed on the activity of the SK3 channel. The selectivity of the molecules was determined by patch clamp on HEK cell models stably expressing the SK3 channel but also the SK1, SK2, SK3 or IKCa/SK4 channels.
(§3) Patch clamp is a technique allowing measurement of the activity of ion channels by recording macroscopic (whole cell configuration) or microscopic (e.g. inside out configuration) ionic currents through the plasma membrane. For assay of the effect of the molecules on the SKCa/IKCa channels, two complementary techniques were used: conventional, manual patch clamp and automated patch clamp with the Nanion NPC-16 Patchliner Quattro (4 channels) (Potier et al., Mol Cancer Ther 2006, 5, 2946-53; Chantome et al., Exp Cell Res 2009, 315, 3620-30; Potier et al., Biochem Biophys Res Commun 2010, 397, 42-7; Girault et al., Current Cancer Drug Targets, 2011, 11, 1111-25; Sevrain et al., Med. Chem. Commun., 2012, 3, 1471-1478; Sevrain et al., Organic & Biomolecular Chemistry, 2013 Jul. 21; 11(27):4479-87; Chantome et al., Cancer Research, 2013 Aug. 1; 73(15):4852-61, Gueguinou M, Crottès D, Chantôme A, Rapetti-Mauss R, Potier-Cartereau M, Clarysse L, Girault A, Fourbon Y, Jézéquel P, Guérin-Charbonnel C, Fromont G, Martin P, Pellissier B, Schiappa R, Chamorey E, Mignen O, Uguen A, Borgese F, Vandier C, Soriani O. Oncogene. 2017 Jan. 23. doi: 10.1038/onc.2016.501, Berthe W, Sevrain C M, Chantôme A, Bouchet A M, Gueguinou M, Fourbon Y, Potier-Cartereau M, Haelters J P, Couthon-Gourvès H, Vandier C, Jaffrès P A. ChemMedChem. 2016 Jul. 19; 11(14):1531-9, Guéguinou M, Harnois T, Crottes D, Uguen A, Deliot N, Gambade A, Chantôme A, Haelters J P, Jaffrès P A, Jourdan M L, Weber G, Soriani O, Bougnoux P, Mignen O, Bourmeyster N, Constantin B, Lecomte T, Vandier C, Potier-Cartereau M. Oncotarget. 2016 Jun. 14; 7(24):36168-36184. doi: 10.18632/oncotarget.8786).
The technique of choice to determine molecules inhibiting the activity of ion channels is the patch-clamp technique. However, this technique which is manual is time-consuming and only gives low yields. Automation of patch-clamp brought a revolution in the study and screening of ion channels and has allowed the envisaging of assays with much faster flow rate and much higher yield. There exist several automatic patch clamp devices based on the use of chips. […]
A general note: The patch-clamp technique gives a direct electrical read-out from membranes.

The target of another assay is T2, SK3 channel (Rattus norvegicus, UniProt P70605).
T2 construct: expressed in transfected cells
In words: Conventional manual patch clamp on HEK-rSK3 cells, SK3 channel activity. The assay is classed as cell-based. The following applies: for inhibition at 0.001 µM: 1 nM; for inhibition at 0.5 µM: 500 nM.
Description: as §1, §2
Electrophysiology/Patch-Clamp
as §3
For conventional patch clamp, the micropipette is filled with an intrapipette medium—IPM (see composition below) and allows measurement of ionic currents at the same time as allowing maintaining of membrane potential (voltage clamp). The experimental device was composed of an anti-vibration table supporting an inverted microscope (Nikon, Eclipse TE 300). The Petri dish (Corning Incorporated, USA), containing the cells was placed on a plexiglass plate attached to the microscope stage. The pipette was connected to the amplifier (Axopatch 200B) as reference electrode which allowed closing of the electrical circuit. […]

Consider `c1ccc2c(c1)CCCN2Nc1ncnc2cccnc12` [Compound 53, N-(3,4-Dihydroquinolin-1(2H)-yl)pyrido[3,2-d]pyrimidin-4-amine], for which the inhibition at 0.05 µM on SK2 channel (50 nM) and against SK3 channel (50 nM) was 29.2% in each case. The inhibition at 0.1 µM against SK2 channel (100 nM) and against SK3 channel (100 nM) was 41.9% throughout. Also, the inhibition (commonly the percentage by which the read-out fell short of the control) at 0.5 µM against SK2 channel (500 nM) was 43.2%; at SK3 channel it was 94.2%. For the same compound, the inhibition at 10 µM against SK2 channel (10 μM) and against SK3 channel (10 μM) was 62.2% in each case. Also, on SK3 channel, the inhibition at 0.001 µM worked out at 7.4%. The inhibition at 0.01 µM against SK3 channel (10 nM) turned out to be 42.6%.
`Oc1nc(NC2CCCc3ccccc32)c2ncccc2n1` (stereo not shown) [Compound 34, 4-(1,2,3,4-tetrahydronaphthalen-1-ylamino)pyrido[3,2-d]pyrimidin-2-ol] returned an inhibition at 0.1 µM on SK2 channel (100 nM) of 92.7%. For the same compound, the inhibition at 10 µM against SK2 channel (10 μM) stood at 94.8%. On SK3 channel (50 nM), this compound showed an inhibition at 0.05 µM of 32.9%. The same compound registered an inhibition at 0.5 µM against SK3 channel of 40.4%.
Take `c1cnc2c(NC3CCCCC3)ncnc2c1` [Compound 23, N-Cyclohexylpyrido[3,2-d]pyrimidin-4-amine]: the figures for the inhibition at 10 µM on SK2 channel (10 μM) and on SK3 channel (10 μM) were 1% and 8.4%, respectively.
For the compound `Cl.c1ccc2c(c1)CCCC2Nc1ncnc2cccnc12` (stereo not shown) [Compound 75, N-Tetralin-1-ylpyrido[3,2-d]pyrimidin-3-ium-4-amine chloride], the inhibition at 0.1 µM on SK2 channel (100 nM) came to 80%; at SK3 channel (100 nM) it was 85.4%. For the same compound, the inhibition at 10 µM on SK2 channel (10 μM) came out at 93.3%; against SK3 channel (10 μM) it was 88.8%. Besides, the “% SK3 inhibition” value at SK3 channel (10 nM) is listed as 10 nM: 92.43 ± 0.78 (N = 2) %.
For `c1ccc2c(c1)CCCC2Nc1ncnc2cccnc12` (stereo not shown) [Compound 7, N-(1,2,3,4-Tetrahydronaphthalen-1-yl)pyrido[3,2-d]pyrimidin-4-amine], the inhibition at 0.001 µM at SK2 channel was 35%; on SK3 channel, 42.2%. For the same compound, the inhibition at 0.01 µM against SK2 channel is 89.3%. Further, the results for the “% SK2 inhibition” value on SK2 channel (100 nM) and at SK2 channel (10 μM) were 100 nM: 91.5 ± 1.6 (N = 9) % and 10 μM: 95.6 ± 1.2 (N = 9) %, respectively. Further, the results for the “% SK3 inhibition” value on SK3 channel (10 nM), at SK3 channel (100 nM) and at SK3 channel (10 μM) were 10 nM: 56.1 ± 4.8 (N = 3) %, 100 nM: 81.3 ± 1.0 (N = 3) % and 10 μM: 83.4 ± 3.2 (N = 8) %, respectively.
Turning to `c1ccc2c(c1)CCC[C@H]2Nc1ncnc2cccnc12` [Compound 18, (R)—N-(1,2,3,4-Tetrahydronaphthalen-1-yl)pyrido[3,2-d]pyrimidin-4-amine], the inhibition at 0.001 µM came out at 36.7% on SK2 channel and 44.7% at SK3 channel. Further, the figures for the inhibition at 0.01 µM against SK2 channel and against SK3 channel (10 nM) were 81.4% and 59.7%, respectively. The values for the inhibition at 0.1 µM at SK2 channel (100 nM) and at SK3 channel (100 nM) were 92.9% and 96%, respectively. For the same compound, the inhibition at 10 µM on SK2 channel (10 μM) came out at 97%; on SK3 channel (10 μM) it was 89.9%.
Regarding `Cc1nc(NC2CCCc3ccccc32)c2ncccc2n1` (stereo not shown) [Compound 30, 2-Methyl-N-(1,2,3,4-tetrahydronaphthalen-1-yl)pyrido[3,2-d]pyrimidin-4-amine], the figures for the inhibition at 10 µM against SK2 channel (10 μM) and at SK3 channel (10 μM) were 95% and 87.2%, respectively. Also, the inhibition at 0.05 µM against SK3 channel (50 nM) turned out to be 35.5%. Moreover, the inhibition at 0.5 µM against SK3 channel is 52.9%.
Turning to `CNc1nc(NC2CCCc3ccccc32)c2ncccc2n1` (stereo not shown) [Compound 35, N^2-methyl-N^4-(1,2,3,4-tetrahydronaphthalen-1-yl)pyrido[3,2-d]pyrimidine-2,4-diamine], at 0.1 µM the inhibition against SK2 channel (100 nM) was 83.7%. Moreover, at SK2 channel (10 μM), the inhibition at 10 µM is 91.4%.
In the case of `CCCCCCc1cnc2c(NC3CCCc4ccccc43)ncnc2c1` (stereo not shown) [Compound 40, 7-Hexyl-N-(1,2,3,4-tetrahydronaphthalen-1-yl)pyrido[3,2-d]pyrimidin-4-amine], the inhibition at 0.1 µM at SK2 channel (100 nM) worked out at 25.6%; against SK3 channel (100 nM), 11.9%. The results for the inhibition at 10 µM against SK2 channel (10 μM) and against SK3 channel (10 μM) were 88.1% and 82.2%, respectively.
On to `Fc1ccc2c(c1)CCCC2Nc1ncnc2cccnc12` (stereo not shown) [Compound 157, N-(6-Fluorotetralin-1-yl)pyrido[3,2-d]pyrimidin-4-amine], for which the inhibition at 0.05 µM against SK3 channel (50 nM) turned out to be 32%. The same compound gave an inhibition at 0.1 µM on SK3 channel (100 nM) of 51.1%. Moreover, the inhibition at 10 µM at SK3 channel (10 μM) stood at 54%.
In the case of `c1ccc2c3c(ccc2c1)CCCC3Nc1ncnc2cccnc12` (stereo not shown) [Compound 29, N-(1,2,3,4-Tetrahydrophenanthren-4-yl)pyrido[3,2-d]pyrimidin-4-amine], the inhibition at 10 µM against SK2 channel (10 μM) is 16.2%; against SK3 channel (10 μM), 46%.
Turning to `OC1CCC(Nc2ncnc3cccnc23)c2ccccc21` (stereo not shown) [Compound 142-E4, 4-(Pyrido[3,2-d]pyrimidin-4-ylamino)tetralin-1-ol], the “% SK3 inhibition” value was 10 μM: 48.28 ± 5.99 (N = 3) % at SK3 channel; 50 nM: 21.9 ± 2.32 (N = 3) % at SK3 channel (50 nM, 0.05 µM); 100 nM: 37.97 ± 3.99 (N = 3) % at SK3 channel (100 nM, 0.1 µM).
